The values below come from patent US20110021588A1, “SUBLINGUAL DEXMEDITOMIDINE COMPOSITIONS AND METHODS OF USE THEREOF” (RECRO PHARMA, INC., priority 2009, published 2011).

A word on the Cmax: it is the maximum level reached in the sampled fluid or tissue. For orientation: Tmax means the time from dosing to the highest level.

For data set [1] the following is noted: human, cited from earlier work.
The next data set is described as follows: in vivo. The note with it: male, Beagle, dog.
The conditions of data set [2]: human, cited from earlier work. The source holds these as a separate data set.

Where two headings read alike, the source gives them in different places.

Protocol for in vivo: The purpose of the study was to assess the pharmacokinetics and absolute bioavailability of dexmedetomidine in a group of five Beagle dogs (males, each aged 5 to 8 months and weighing between 7.5 and 9.2 kg) following sublingual spray administration of the different formulations described in Tables 1 and 2.
For sublingual administration, a spray application was administered by one depression of a pump device into the oral cavity under the tongue. In order to ensure proper pump priming, two actuations were performed prior to dosing. Following dose administration, serial blood samples were collected form each subject animal by venipuncture of a jugular vein as follows: 0 (predose), 0.083, 0.167, 0.25, 0.33, 0.5, 1, 2, and 6 hours post-sublingual dose. […] Blood samples were collected in vacutainer tubes containing K2EDTA as anticoagulant, and derived plasma samples were stored frozen until analyzed.

For the compound `Cc1cccc([C@H](C)c2cnc[nH]2)c1C` [dexmedetomidine, 5-[(1S)-1-(2,3-dimethylphenyl)ethyl]-1H-imidazole], in data set [1] (buccal), the apparent elimination half-life is 1.9 h and the “time of maximum concentration” value is “approximately 1.5 h”. In data set [1] (solution held in mouth without swallowing), the mean buccal bioavailability is reported as 81.8%. Moreover, in “in vivo”, the peak level (Cmax) was 0.914 ng/mL and the Tmax is 0.333 h. Moreover, in data set [2] (i.m. administration), the absolute bioavailability is 73% and the “time to maximum concentration in blood” value was 1.6 to 1.7 h. Further, the mean elimination half-life in data set [2] (i.m. dosing) is recorded as 3 h. Moreover, the mean elimination half-life in data set [2] (i.v. dosing) is 1.5 h. In data set [2] (transdermal administration), the absolute bioavailability was 88%, the mean elimination half-life is reported as 5.6 h and the “time to maximum concentration in blood” value is given as 6 h.
